Source: ChEMBL document CHEMBL4627367, “Structure-based design and synthesis of novel furan-diketopiperazine-type derivatives as potent microtubule inhibitors for treating cancer” (Bioorg Med Chem, 2020)
The source made the active and inactive calls. The calls are words filed in the database; no cut-off is given here.

How the values were obtained:
[1] = test system: NCI-H460; experiment: Cytotoxicity against human NCI-H460 cells assessed as reduction in cell viability after 72 hrs by MTT assay; format: functional, cell-based; details: NCI-H460, 72 h
[2] = test system: BXPC-3; experiment: Cytotoxicity against human BxPC3 cells assessed as reduction in cell viability incubated for 72 hrs by MTT assay; format: functional, cell-based; details: BXPC-3, 72 h
[3] = test system: HT-29; experiment: Cytotoxicity against human HT-29 cells assessed as reduction in cell viability after 72 hrs by MTT assay; format: functional, cell-based; details: HT-29, 72 h
[4] = target: T1, Tubulin (Homo sapiens) (UniProt P68371+Q9H4B7+P0DPH7+P68366+Q13509+Q71U36+P04350+Q3ZCM7+P07437+P68363+Q9BQE3+Q6PEY2+Q13885+Q9BVA1+Q9BUF5); experiment: Inhibition of tubulin in human NCI-H460 cells assessed as inhibition of microtubule polymerization at 10 nM after 24 hrs by immunofluorescence assay; format: cell-based
[5] = target: T1, Tubulin (Homo sapiens); experiment: Inhibition of tubulin in human NCI-H460 cells assessed as inhibition of microtubule polymerization at 2 nM after 24 hrs by immunofluorescence assay; format: cell-based

SMILES	IC50 [1]	IC50 [2]	IC50 [3]	inhibition [4]	inhibition [5]
O=c1[nH]/c(=C\c2nc3ccccc3[nH]2)c(=O)[nH]/c1=C\c1cccc(Oc2ccc(F)cc2)c1	> 1000 nM	–	–	–	–
O=c1[nH]/c(=C\c2cccc(Oc3ccc(F)cc3)c2)c(=O)[nH]/c1=C\c1ccccc1	389 nM	–	–	–	–
O=c1[nH]/c(=C\c2ccc(Br)o2)c(=O)[nH]/c1=C\c1cccc(Oc2ccc(F)cc2)c1	361 nM	–	–	–	–
O=C(c1ccc(F)cc1)c1cccc(/C=c2\[nH]c(=O)/c(=C/c3nc[nH]c3C3CC3)[nH]c2=O)c1	2.8 nM	1.4 nM	1.4 nM	–	–
O=c1[nH]/c(=C\c2c[nH]cn2)c(=O)[nH]/c1=C\c1cccc(Oc2ccc(F)cc2)c1	478 nM	–	–	–	–
Cc1ccc(/C=c2\[nH]c(=O)/c(=C/c3cccc(Oc4ccc(F)cc4)c3)[nH]c2=O)o1	30 nM	–	–	–	–
Cc1[nH]cnc1/C=c1\[nH]c(=O)/c(=C/c2cccc(Oc3ccc(F)cc3)c2)[nH]c1=O	47.6 nM	–	–	–	–
CC(C)(C)c1[nH]cnc1/C=c1\[nH]c(=O)/c(=C/c2cccc(Oc3ccc(F)cc3)c2)[nH]c1=O	–	3.2 nM	2.1 nM	Active	–
CC(C)(C)c1[nH]cnc1/C=c1\[nH]c(=O)/c(=C/c2ccccc2)[nH]c1=O [PLINABULIN]	–	5.8 nM	6.6 nM	Active	–
O=c1[nH]/c(=C\c2ccc(Cl)o2)c(=O)[nH]/c1=C\c1cccc(Oc2ccc(F)cc2)c1	180 nM	–	–	–	–
O=C(c1ccc(F)cc1)c1cccc(/C=c2\[nH]c(=O)/c(=C/c3c[nH]cn3)[nH]c2=O)c1	278 nM	4.3 nM	5.1 nM	–	–
O=c1[nH]/c(=C\c2ccc(CO)o2)c(=O)[nH]/c1=C\c1cccc(Oc2ccc(F)cc2)c1	41.5 nM	–	–	–	–
Cc1ccc(/C=c2\[nH]c(=O)/c(=C/c3cccc(C(=O)c4ccc(F)cc4)c3)[nH]c2=O)o1	5.3 nM	3.7 nM	3.3 nM	–	–
CC(C)c1[nH]cnc1/C=c1\[nH]c(=O)/c(=C/c2cccc(C(=O)c3ccc(F)cc3)c2)[nH]c1=O	3.2 nM	0.6 nM	0.8 nM	Active	–
O=c1[nH]/c(=C\c2ccc([N+](=O)[O-])o2)c(=O)[nH]/c1=C\c1cccc(Oc2ccc(F)cc2)c1	> 1000 nM	–	–	–	–
Cc1[nH]cnc1/C=c1\[nH]c(=O)/c(=C/c2cccc(C(=O)c3ccc(F)cc3)c2)[nH]c1=O	15.9 nM	–	–	–	–
CC(C)c1[nH]cnc1/C=c1\[nH]c(=O)/c(=C/c2cccc(Oc3ccc(F)cc3)c2)[nH]c1=O	8.8 nM	3.4 nM	3.7 nM	Active	–
O=c1[nH]/c(=C\c2ccccn2)c(=O)[nH]/c1=C\c1cccc(Oc2ccc(F)cc2)c1	49.1 nM	–	–	–	–
COCc1ccc(/C=c2\[nH]c(=O)/c(=C/c3cccc(Oc4ccc(F)cc4)c3)[nH]c2=O)o1	14 nM	6.6 nM	7 nM	Active	–
O=c1[nH]/c(=C\c2cccc(Oc3ccc(F)cc3)c2)c(=O)[nH]/c1=C\c1cccnc1	> 1000 nM	–	–	–	–
O=c1[nH]/c(=C\c2ncc[nH]2)c(=O)[nH]/c1=C\c1cccc(Oc2ccc(F)cc2)c1	> 1000 nM	–	–	–	–
O=c1[nH]/c(=C\c2ccco2)c(=O)[nH]/c1=C\c1cccc(Oc2ccc(F)cc2)c1	154 nM	–	–	–	–
O=c1[nH]/c(=C\c2cccs2)c(=O)[nH]/c1=C\c1cccc(Oc2ccc(F)cc2)c1	> 1000 nM	–	–	–	–
O=c1[nH]/c(=C\C2CCCCC2)c(=O)[nH]/c1=C\c1cccc(Oc2ccc(F)cc2)c1	> 1000 nM	–	–	–	–
CC(C)(C)c1[nH]cnc1/C=c1\[nH]c(=O)/c(=C/c2cccc(C(=O)c3ccc(F)cc3)c2)[nH]c1=O	–	0.6 nM	0.6 nM	–	Active
O=c1[nH]/c(=C\c2cc3ccccc3o2)c(=O)[nH]/c1=C\c1cccc(Oc2ccc(F)cc2)c1	347 nM	–	–	–	–
COCc1ccc(/C=c2\[nH]c(=O)/c(=C/c3cccc(C(=O)c4ccc(F)cc4)c3)[nH]c2=O)o1	2.9 nM	2 nM	2.2 nM	Active	–
O=c1[nH]/c(=C\c2nc[nH]c2C2CC2)c(=O)[nH]/c1=C\c1cccc(Oc2ccc(F)cc2)c1	15.2 nM	9.4 nM	7.4 nM	–	–
